In patent publication US20040006070A1, “Intraspinal continuous infusion of midazolam hydrochloride for the treatment of pain” (priority 2002, published 2004):
Where a name gives a salt, the structure may show the parent alone.

Assay: Bloodwork: complete blood count, electrolytes, extended blood chemistry
Format: in vivo, sheep
Description: Indirect blood pressure, pulse recording, pain testing (mechanical stimulus device, cold and warm water baths see description in procedure) and weight were taken on days 1, 3, 7, 15, 22, 29, 36, and 43. Venous blood samples (15 ml drawn from the jugular vein with Vacutainer brand blood collection tubes) for complete blood count, electrolytes, and extended blood chemistry were drawn on days 1, 15, and 43 (mild procedure only light hand restraint necessary).

[1] = Double Blinded Sheep, Chemistries, Day 15
[2] = Double Blinded Sheep, Chemistries, Day 43
[3] = sheep #84 Roadrunner, 15 mg/day, Baseline
[4] = sheep #84 Roadrunner, 15 mg/day, Day 1

## Cc1ncc2n1-c1ccc(Cl)cc1C(c1ccccc1F)=NC2 [Midazolam, midazolam hydrochloride]
[1]
  ALT: 10 U/L
  AST: 72 U/L
  CPK: 100 U/L
  Cholesterol: 74 mg/dL
Double Blinded Sheep, Chemistries, Day 15, reference range 0.14-0.32
  Total Bili: 0.1 mg/dL
Double Blinded Sheep, Chemistries, Day 15, reference range 1-2.7
  Creatinine: 1.1 mg/dL
Double Blinded Sheep, Chemistries, Day 15, reference range 2.4-3
  Albumin: 3.6 g/dL
Double Blinded Sheep, Chemistries, Day 15, reference range 3.9-5.4
  K+: 4.8 mEq/l
Double Blinded Sheep, Chemistries, Day 15, reference range 5-7.3
  Phos: 6.4 mg/dL
Double Blinded Sheep, Chemistries, Day 15, reference range 6-7.9
  Total Prot: 7.1 g/dL
Double Blinded Sheep, Chemistries, Day 15, reference range 8-20
  BUN: 25 mg/dL
Double Blinded Sheep, Chemistries, Day 15, reference range 25-59
  Gamma GT: 87 U/L
Double Blinded Sheep, Chemistries, Day 15, reference range 42-76
  Glucose: 82 mg/dL
Double Blinded Sheep, Chemistries, Day 15, reference range 68-387
  Alk Phos: 154 U/L
Double Blinded Sheep, Chemistries, Day 15, reference range 139-152
  Na+: 146 mEq/l
[2]
  ALT: 15 U/L
  AST: 78 U/L
  CPK: 96 U/L
  Cholesterol: 80 mg/dL
Double Blinded Sheep, Chemistries, Day 43, reference range 0.14-0.32
  Total Bili: 0.1 mg/dL
Double Blinded Sheep, Chemistries, Day 43, reference range 1-2.7
  Creatinine: 1.0 mg/dL
Double Blinded Sheep, Chemistries, Day 43, reference range 2.4-3
  Albumin: 3.6 g/dL
Double Blinded Sheep, Chemistries, Day 43, reference range 3.9-5.4
  K+: 5.7 mEq/l
Double Blinded Sheep, Chemistries, Day 43, reference range 5-7.3
  Phos: 6.9 mg/dL
Double Blinded Sheep, Chemistries, Day 43, reference range 6-7.9
  Total Prot: 6.9 g/dL
Double Blinded Sheep, Chemistries, Day 43, reference range 8-20
  BUN: 26 mg/dL
Double Blinded Sheep, Chemistries, Day 43, reference range 25-59
  Gamma GT: 73 U/L
Double Blinded Sheep, Chemistries, Day 43, reference range 42-76
  Glucose: 70 mg/dL
Double Blinded Sheep, Chemistries, Day 43, reference range 68-387
  Alk Phos: 179 U/L
Double Blinded Sheep, Chemistries, Day 43, reference range 139-152
  Na+: 146 mEq/l
Sheep #83, 15 mg/day, Day 1
  ALT: 0 U/L
  AST: 102 U/L
  Alk Phos: 48 U/L
  BUN: 8 mg/dL
  CPK: 65 U/L
  Cholesterol: 47 mg/dL
  Differential Count: Eosin: 1%
  Differential Count: Lymph: 55%
  Differential Count: Mono: 5%
  Differential Count: Seg: 39%
  Gamma GT: 62 U/L
  Glucose: 78 mg/dL
  Hct: 37.2%
  Hgb: 12.7 g/dL
  MCH: 11.3 pg
  MCHC: 34.0 g/dL
  MCV: 33.2 fL
  Na+: 148 mEq/l
  Platlet Count: 879000 µL⁻¹
  RBC: 1.12e+07 µL⁻¹
  WBC: 5320 µL⁻¹
Sheep #83, 15 mg/day, Day 1, ref 0.14-0.32
  Total Bili: 0.1 mg/dL
Sheep #83, 15 mg/day, Day 1, ref 1-2.7
  Creatinine: 1.4 mg/dL
Sheep #83, 15 mg/day, Day 1, ref 2.4-3
  Albumin: 3.3 g/dL
Sheep #83, 15 mg/day, Day 1, ref 3.9-5.4
  K+: 4.2 mEq/l
Sheep #83, 15 mg/day, Day 1, ref 5-7.3
  Phos: 7.1 mg/dL
Sheep #83, 15 mg/day, Day 1, ref 6-7.9
  Total Prot: 6.1 g/dL
Sheep #83, 15 mg/day, Day 15
  ALT: 8 U/L
  AST: 52 U/L
  Alk Phos: 90 U/L
  BUN: 90 mg/dL
  CPK: 107 U/L
  Cholesterol: 65 mg/dL
  Differential Count: Eosin: 1%
  Differential Count: Lymph: 68%
  Differential Count: Mono: 2%
  Differential Count: Seg: 29%
  Gamma GT: 72 U/L
  Glucose: 66 mg/dL
  Hct: 33.2%
  Hgb: 11.5 g/dL
  MCH: 11.4 pg
  MCHC: 34.7 g/dL
  MCV: 33.0 fL
  Na+: 147 mEq/l
  Platlet Count: 296000 µL⁻¹
  RBC: 1e+07 µL⁻¹
  WBC: 4390 µL⁻¹
Sheep #83, 15 mg/day, Day 15, ref 0.14-0.32
  Total Bili: 0.1 mg/dL
Sheep #83, 15 mg/day, Day 15, ref 1-2.7
  Creatinine: 1.2 mg/dL
Sheep #83, 15 mg/day, Day 15, ref 2.4-3
  Albumin: 3.3 g/dL
Sheep #83, 15 mg/day, Day 15, ref 3.9-5.4
  K+: 4.5 mEq/l
Sheep #83, 15 mg/day, Day 15, ref 5-7.3
  Phos: 5.1 mg/dL
Sheep #83, 15 mg/day, Day 15, ref 6-7.9
  Total Prot: 5.9 g/dL
Sheep #83, 15 mg/day, Day 43
  ALT: 6 U/L
  AST: 53 U/L
  Alk Phos: 96 U/L
  BUN: 14 mg/dL
  CPK: 49 U/L
  Cholesterol: 52 mg/dL
  Differential Count: Atyp lym: 2%
  Differential Count: Eosin: 3%
  Differential Count: Lymph: 70%
  Differential Count: Mono: 3%
  Differential Count: Seg: 22%
  Gamma GT: 54 U/L
  Glucose: 83 mg/dL
  Hct: 34.9%
  Hgb: 11.9 g/dL
  MCH: 11.1 pg
  MCHC: 31.1 g/dL
  MCV: 32.5 fL
  Na+: 149 mEq/l
  Platlet Count: 576000 µL⁻¹
  RBC: 1.07e+07 µL⁻¹
  WBC: 4770 µL⁻¹
Sheep #83, 15 mg/day, Day 43, ref 0.14-0.32
  Total Bili: 0.1 mg/dL
Sheep #83, 15 mg/day, Day 43, ref 1-2.7
  Creatinine: 1.3 mg/dL
Sheep #83, 15 mg/day, Day 43, ref 2.4-3
  Albumin: 3.6 g/dL
Sheep #83, 15 mg/day, Day 43, ref 3.9-5.4
  K+: 4.9 mEq/l
Sheep #83, 15 mg/day, Day 43, ref 5-7.3
  Phos: 6.2 mg/dL
Sheep #83, 15 mg/day, Day 43, ref 6-7.9
  Total Prot: 6.6 g/dL
[3]
  Differential Count: Eosin: 5%
  Differential Count: Lymph: 62%
  Differential Count: Mono: 1%
  Differential Count: Seg: 32%
  Hct: 41.9%
  Hgb: 15.0 g/dL
  MCH: 10.7 pg
  MCHC: 35.7 g/dL
  MCV: 30.0 fL
  Platlet Count: 721000 µL⁻¹
  RBC: 1.4e+07 µL⁻¹
  WBC: 5790 µL⁻¹
[4]
  ALT: 9 U/L
  AST: 100 U/L
  Albumin: 3.3 g/dL
  Alk Phos: 93 U/L
  BUN: 7 mg/dL
  CPK: 90 U/L
  Cholesterol: 45 mg/dL
  Creatinine: 1.2 mg/dL
  Differential Count: Eosin: 8%
  Differential Count: Lymph: 43%
  Differential Count: Mono: 3%
  Differential Count: Seg: 46%
  Gamma GT: 51 U/L
  Glucose: 69 mg/dL
  Hct: 35.7%
  Hgb: 12.9 g/dL
  K+: 4.8 mEq/l
  MCH: 11.0 pg
  MCHC: 36.1 g/dL
  MCV: 30.4 fL
  Na+: 148 mEq/l
  Phos: 6.2 mg/dL
  Platlet Count: 962000 µL⁻¹
  RBC: 1.17e+07 µL⁻¹
